Test [1] concerns the target Peroxisome proliferator-activated receptor gamma/Nuclear receptor coactivator 3 (Homo sapiens, UniProt P37231). Kind of test: TR-FRET dose response biochemical High Throughput Screening assay for agonists of the steroid receptor coactivator 3 (SRC-3) recruitment by the peroxisome proliferator-activated receptor gamma (PPAR gamma): non-selective agonists. [Related pubchem assays: 1301 (Confirmation screen.), 1048 (Primary screen.)]. The test is classed as functional. (In general: Time-resolved FRET reads energy transfer from a long-lived donor to a nearby acceptor.)

Test [2] deals with Peroxisome proliferator-activated receptor gamma/Nuclear receptor coactivator 2 (Homo sapiens, UniProt P37231). Kind of test: TR-FRET dose response biochemical High Throughput Screening assay for agonists of the steroid receptor coactivator 2 (SRC-2) recruitment by the peroxisome proliferator-activated receptor gamma (PPAR gamma): non-selective agonists. [Related pubchem assays: 1297, 1032 ]. The test is classed as functional.
Sequence of Peroxisome proliferator-activated receptor gamma/Nuclear receptor coactivator 2 (P37231 whole entry): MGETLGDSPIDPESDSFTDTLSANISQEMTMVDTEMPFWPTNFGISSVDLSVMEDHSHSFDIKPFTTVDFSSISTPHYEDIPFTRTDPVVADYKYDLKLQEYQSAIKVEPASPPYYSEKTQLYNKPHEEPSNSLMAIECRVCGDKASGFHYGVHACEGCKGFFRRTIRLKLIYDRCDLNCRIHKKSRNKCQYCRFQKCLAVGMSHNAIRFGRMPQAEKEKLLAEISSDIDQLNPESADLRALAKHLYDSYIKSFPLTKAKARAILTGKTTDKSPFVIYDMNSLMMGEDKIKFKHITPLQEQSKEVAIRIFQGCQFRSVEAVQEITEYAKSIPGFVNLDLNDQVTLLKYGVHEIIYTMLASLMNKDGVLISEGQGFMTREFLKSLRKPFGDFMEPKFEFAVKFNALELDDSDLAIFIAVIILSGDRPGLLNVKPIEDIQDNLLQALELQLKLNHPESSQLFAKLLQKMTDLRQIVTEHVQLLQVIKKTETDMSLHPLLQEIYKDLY
Sequence of Peroxisome proliferator-activated receptor gamma/Nuclear receptor coactivator 2 (Q15596 whole entry, further chain): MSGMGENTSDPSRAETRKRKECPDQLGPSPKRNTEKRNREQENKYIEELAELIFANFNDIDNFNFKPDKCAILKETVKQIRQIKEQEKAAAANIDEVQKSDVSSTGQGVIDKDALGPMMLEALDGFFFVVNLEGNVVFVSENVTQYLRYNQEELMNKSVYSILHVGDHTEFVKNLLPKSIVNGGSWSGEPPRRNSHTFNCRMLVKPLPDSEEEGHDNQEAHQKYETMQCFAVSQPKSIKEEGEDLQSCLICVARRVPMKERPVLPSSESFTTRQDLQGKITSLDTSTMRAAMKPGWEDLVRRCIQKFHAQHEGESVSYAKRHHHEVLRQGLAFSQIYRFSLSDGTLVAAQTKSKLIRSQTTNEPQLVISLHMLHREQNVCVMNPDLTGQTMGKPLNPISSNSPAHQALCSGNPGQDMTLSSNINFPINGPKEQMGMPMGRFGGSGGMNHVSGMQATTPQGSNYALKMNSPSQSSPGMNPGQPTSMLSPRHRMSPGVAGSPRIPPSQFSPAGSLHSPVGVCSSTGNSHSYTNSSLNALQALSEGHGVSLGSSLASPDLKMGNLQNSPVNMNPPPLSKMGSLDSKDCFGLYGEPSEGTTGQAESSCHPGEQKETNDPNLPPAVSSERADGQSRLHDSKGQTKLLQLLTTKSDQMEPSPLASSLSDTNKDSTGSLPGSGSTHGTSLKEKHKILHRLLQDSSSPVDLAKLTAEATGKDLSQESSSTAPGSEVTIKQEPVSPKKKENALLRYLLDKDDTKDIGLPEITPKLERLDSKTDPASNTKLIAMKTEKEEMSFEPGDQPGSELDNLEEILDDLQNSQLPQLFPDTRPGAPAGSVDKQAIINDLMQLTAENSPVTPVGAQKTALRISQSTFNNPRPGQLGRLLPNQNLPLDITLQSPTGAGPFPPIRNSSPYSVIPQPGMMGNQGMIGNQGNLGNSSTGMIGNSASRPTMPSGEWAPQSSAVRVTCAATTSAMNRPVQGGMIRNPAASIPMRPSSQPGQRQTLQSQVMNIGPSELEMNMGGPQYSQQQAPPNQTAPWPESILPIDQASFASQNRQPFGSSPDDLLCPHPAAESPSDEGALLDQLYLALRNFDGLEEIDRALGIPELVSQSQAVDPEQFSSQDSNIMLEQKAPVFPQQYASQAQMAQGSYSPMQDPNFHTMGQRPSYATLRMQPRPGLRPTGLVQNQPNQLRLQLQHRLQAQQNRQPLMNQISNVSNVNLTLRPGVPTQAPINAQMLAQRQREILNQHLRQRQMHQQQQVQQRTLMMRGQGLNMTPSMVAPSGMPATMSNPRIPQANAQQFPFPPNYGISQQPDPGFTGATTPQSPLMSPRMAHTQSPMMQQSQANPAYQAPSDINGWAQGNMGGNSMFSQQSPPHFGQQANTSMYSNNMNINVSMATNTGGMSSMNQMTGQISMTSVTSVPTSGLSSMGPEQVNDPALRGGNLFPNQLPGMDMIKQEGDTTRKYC

Another test addresses T1, Leucine aminopeptidase (Plasmodium falciparum 3D7, UniProt Q8IL11).
T1 sequence (Q8IL11 whole entry): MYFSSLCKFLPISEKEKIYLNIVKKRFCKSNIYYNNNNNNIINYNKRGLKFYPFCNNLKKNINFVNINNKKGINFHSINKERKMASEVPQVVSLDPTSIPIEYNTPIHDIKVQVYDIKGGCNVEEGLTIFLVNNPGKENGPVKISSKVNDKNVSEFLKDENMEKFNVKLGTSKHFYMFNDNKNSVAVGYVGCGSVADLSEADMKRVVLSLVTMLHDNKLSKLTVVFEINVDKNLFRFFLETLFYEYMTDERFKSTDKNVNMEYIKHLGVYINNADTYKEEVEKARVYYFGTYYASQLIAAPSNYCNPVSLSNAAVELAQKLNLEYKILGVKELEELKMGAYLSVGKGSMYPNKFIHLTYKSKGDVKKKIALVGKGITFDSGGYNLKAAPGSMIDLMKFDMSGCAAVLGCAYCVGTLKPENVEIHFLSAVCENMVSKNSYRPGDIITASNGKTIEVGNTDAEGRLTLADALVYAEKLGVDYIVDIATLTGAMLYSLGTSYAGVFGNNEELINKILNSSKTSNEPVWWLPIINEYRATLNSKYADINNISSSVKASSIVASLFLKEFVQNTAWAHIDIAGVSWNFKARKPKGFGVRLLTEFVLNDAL
Kind of test: P. falciparum M17LAP inhibitors, primary screen, biochemical, fluorogenic H-Leu-NHMec substrate, 1536-well (AID 1619). The test is classed as functional.

The target of test [3] is Peroxisome proliferator-activated receptor gamma/Nuclear receptor coactivator 1 (Homo sapiens, UniProt P37231). Kind of test: TR-FRET dose response biochemical High Throughput Screening assay for agonists of the steroid receptor coactivator 1 (SRC-1) recruitment by the peroxisome proliferator-activated receptor gamma (PPAR gamma): non-selective agonists. [Related pubchem assays (depositor defined):AID1300, AID1808, AID504735, AID631]. The test is classed as protein assay.

Test [4] concerns the target T2, Kappa-type opioid receptor (Homo sapiens, UniProt P41145). The format is functional.
A further test deals with Beta-galactosidase (Escherichia coli, UniProt Q8VNN2). The format is functional.
Sequence of Beta-galactosidase (Q8VNN2 whole entry): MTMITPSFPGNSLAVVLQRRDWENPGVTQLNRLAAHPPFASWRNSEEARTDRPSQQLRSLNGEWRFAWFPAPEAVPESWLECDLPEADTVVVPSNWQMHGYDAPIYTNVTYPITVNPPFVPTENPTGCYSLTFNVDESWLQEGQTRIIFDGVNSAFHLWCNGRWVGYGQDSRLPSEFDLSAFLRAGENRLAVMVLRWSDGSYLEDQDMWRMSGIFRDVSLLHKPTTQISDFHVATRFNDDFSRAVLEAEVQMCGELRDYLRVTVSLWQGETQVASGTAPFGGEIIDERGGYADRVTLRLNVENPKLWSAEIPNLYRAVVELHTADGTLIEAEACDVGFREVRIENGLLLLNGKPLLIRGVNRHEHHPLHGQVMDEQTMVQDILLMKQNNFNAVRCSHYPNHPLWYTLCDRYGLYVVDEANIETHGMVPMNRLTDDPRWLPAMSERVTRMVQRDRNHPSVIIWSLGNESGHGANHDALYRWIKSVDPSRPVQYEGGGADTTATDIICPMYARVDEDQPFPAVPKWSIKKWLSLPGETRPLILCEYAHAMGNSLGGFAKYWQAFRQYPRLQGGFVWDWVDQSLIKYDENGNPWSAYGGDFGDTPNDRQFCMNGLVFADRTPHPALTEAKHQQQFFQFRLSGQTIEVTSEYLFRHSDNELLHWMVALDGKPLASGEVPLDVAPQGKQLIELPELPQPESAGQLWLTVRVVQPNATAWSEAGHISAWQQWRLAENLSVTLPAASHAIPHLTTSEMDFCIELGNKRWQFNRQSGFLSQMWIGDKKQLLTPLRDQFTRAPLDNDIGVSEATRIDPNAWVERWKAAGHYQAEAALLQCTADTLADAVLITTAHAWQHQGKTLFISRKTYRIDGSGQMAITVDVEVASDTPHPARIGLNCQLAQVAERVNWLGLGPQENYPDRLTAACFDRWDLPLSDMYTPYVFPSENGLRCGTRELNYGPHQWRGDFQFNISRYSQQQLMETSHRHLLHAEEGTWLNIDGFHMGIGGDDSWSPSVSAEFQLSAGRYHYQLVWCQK
Test [5] deals with T3, Delta-type opioid receptor (Homo sapiens, UniProt P41143). Kind of test: HTS Image-Based Screen for Antagonists of the DOR Receptor. [Related pubchem assays (depositor defined):AID1777, AID1785, AID1786, AID2133]. The test is classed as functional.
T3 sequence (P41143 whole entry): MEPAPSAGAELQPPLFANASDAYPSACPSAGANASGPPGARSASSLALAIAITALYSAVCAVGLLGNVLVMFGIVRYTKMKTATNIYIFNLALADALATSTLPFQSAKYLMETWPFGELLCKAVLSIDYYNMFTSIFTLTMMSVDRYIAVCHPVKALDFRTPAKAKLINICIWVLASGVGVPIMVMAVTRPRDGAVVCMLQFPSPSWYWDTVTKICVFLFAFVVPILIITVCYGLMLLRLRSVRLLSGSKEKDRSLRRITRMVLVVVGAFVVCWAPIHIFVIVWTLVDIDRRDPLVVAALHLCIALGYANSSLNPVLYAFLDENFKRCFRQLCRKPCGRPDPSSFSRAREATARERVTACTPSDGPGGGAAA
Another test addresses Mu-type opioid receptor (Homo sapiens, UniProt P35372). Kind of test: HTS Image-Based Screen for Agonists of the MOR Receptor. [Related pubchem assays (depositor defined):AID1777, AID1785, AID1786, AID2133]. The format is functional.
In test [6] the target is T2, Kappa-type opioid receptor. The test is classed as functional. This is another data set of the same source.
In test [7] the target is T3, Delta-type opioid receptor. As to the kind of experiment: HTS Image-Based Screen for Agonists of the DOR Receptor. [Related pubchem assays (depositor defined):AID1777, AID1786, AID2133]. The test is classed as functional.
Test [8] has as its target Intestinal-type alkaline phosphatase (Mus musculus, UniProt P24822). Kind of test: mouse intestinal alkaline phosphatase activators, dose response, biochemical, luminescence, uHTS hits (AID 488783). The test is classed as functional.
The target of test [9] is Intestinal-type alkaline phosphatase (Homo sapiens, UniProt P09923). As to the kind of experiment: activation of human intestinal alkaline phosphatase – biochemical, dose response (AID 488873). The format is functional.
The target of test [10] is T4, Alkaline phosphatase, tissue-nonspecific isozyme (Homo sapiens, UniProt P05186).
T4 sequence (P05186 whole entry): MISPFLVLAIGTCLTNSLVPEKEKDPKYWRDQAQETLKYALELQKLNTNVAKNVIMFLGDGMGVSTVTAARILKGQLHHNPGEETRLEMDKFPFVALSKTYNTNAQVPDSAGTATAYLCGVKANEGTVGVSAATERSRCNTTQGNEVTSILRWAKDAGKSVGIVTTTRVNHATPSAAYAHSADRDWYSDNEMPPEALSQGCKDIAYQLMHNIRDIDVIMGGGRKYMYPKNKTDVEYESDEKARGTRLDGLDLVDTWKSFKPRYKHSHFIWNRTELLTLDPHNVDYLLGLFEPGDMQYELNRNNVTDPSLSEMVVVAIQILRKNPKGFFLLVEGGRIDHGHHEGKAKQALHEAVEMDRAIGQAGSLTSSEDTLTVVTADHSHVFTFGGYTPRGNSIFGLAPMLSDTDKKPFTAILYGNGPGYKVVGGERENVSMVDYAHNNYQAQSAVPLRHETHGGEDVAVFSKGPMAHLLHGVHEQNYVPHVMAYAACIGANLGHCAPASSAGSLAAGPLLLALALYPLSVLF
Kind of test: activation of tissue-nonspecific alkaline phosphatase – biochemical, TNAP isozyme, mouse IAP uHTS hits, selectivity assay for mouse IAP activator project, dose response (AID 488880). The format is functional.

Test [11] has as its target T5, Cannabinoid receptor 2 (Homo sapiens, UniProt P34972). As to the kind of experiment: SAR analysis of antagonists of the Cannabinoid Receptor 2 using an Image-Based Assay - Set 2. [Related pubchem assays (depositor defined):AID1961, AID1965]. The test is classed as functional.
The target of another test is Cannabinoid receptor 1 (Homo sapiens, UniProt P21554). Kind of test: SAR analysis of antagonists of the Cannabinoid Receptor 1 using an Image-Based Assay. [Related pubchem assays (depositor defined):AID1961, AID1965]. The format is functional.
Sequence of Cannabinoid receptor 1 (P21554 whole entry): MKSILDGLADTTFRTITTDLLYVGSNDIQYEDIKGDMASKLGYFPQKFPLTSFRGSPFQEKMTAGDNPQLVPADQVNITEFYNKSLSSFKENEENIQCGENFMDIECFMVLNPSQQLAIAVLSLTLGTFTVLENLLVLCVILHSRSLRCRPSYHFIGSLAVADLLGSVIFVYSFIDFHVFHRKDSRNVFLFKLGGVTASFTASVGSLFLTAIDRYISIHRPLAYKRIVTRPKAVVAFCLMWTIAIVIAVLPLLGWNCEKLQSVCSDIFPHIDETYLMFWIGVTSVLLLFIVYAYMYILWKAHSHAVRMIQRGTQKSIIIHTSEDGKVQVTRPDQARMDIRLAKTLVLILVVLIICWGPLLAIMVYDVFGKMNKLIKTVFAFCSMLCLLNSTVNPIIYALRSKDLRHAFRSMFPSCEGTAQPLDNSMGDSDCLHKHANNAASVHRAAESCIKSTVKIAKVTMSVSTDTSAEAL
In test [12] the target is T5, Cannabinoid receptor 2. As to the kind of experiment: SAR analysis of agonists of the Cannabinoid Receptor 2 using an Image-Based Assay - Set 2. [Related pubchem assays (depositor defined):AID1961, AID1965]. The test is classed as functional.
Test [13] concerns the target G-protein coupled receptor 55 (Homo sapiens, UniProt Q9Y2T6). As to the kind of experiment: SAR analysis of selective Agonists of GPR55 using an Image-Based Assay. [Related pubchem assays (depositor defined):AID1961, AID1965]. The format is functional.

pIC50: −log10 of the molar value. Calls of active or inactive are those of the source.

T5 sequence (P34972 whole entry): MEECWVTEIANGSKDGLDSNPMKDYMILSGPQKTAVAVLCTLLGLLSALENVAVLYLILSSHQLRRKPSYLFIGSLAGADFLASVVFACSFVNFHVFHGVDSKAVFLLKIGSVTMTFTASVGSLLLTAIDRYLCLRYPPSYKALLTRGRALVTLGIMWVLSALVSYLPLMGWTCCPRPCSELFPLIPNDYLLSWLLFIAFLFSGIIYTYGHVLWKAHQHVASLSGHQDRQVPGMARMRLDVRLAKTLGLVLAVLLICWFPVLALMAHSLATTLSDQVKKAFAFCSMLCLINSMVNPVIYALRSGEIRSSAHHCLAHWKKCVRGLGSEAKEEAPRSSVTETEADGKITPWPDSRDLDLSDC
T2 sequence (P41145 whole entry): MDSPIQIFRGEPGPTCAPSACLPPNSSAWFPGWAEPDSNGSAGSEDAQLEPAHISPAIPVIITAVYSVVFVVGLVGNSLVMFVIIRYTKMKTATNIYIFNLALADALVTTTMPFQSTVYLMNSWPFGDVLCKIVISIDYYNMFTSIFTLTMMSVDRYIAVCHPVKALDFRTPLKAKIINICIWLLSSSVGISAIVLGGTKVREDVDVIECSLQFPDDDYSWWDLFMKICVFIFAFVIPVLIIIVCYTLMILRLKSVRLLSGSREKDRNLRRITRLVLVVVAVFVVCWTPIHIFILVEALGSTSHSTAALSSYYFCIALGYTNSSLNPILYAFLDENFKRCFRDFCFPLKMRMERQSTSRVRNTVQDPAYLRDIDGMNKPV
Sequence of Mu-type opioid receptor (P35372 whole entry): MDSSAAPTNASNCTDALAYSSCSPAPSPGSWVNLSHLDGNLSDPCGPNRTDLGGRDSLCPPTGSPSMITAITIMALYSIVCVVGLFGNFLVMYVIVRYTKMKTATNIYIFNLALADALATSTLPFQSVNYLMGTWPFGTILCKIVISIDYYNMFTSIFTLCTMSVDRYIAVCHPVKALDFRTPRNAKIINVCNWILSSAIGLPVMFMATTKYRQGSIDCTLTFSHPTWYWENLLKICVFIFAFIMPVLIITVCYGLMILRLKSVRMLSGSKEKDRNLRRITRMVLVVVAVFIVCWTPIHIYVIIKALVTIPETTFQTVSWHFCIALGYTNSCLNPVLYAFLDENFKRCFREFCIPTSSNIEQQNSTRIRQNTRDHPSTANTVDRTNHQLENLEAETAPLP

The EC50 is the concentration giving half of the maximal effect. What is called IC50 is the midpoint of a concentration-inhibition curve. For the compound `CCOC(=O)c1c(-c2cccs2)csc1NC(=O)CCCC(=O)O`, the EC50 was > 79.4 µM (not active) in test [1], 39.6 µM (not active) in test [2] and 69.1 µM (inactive) in test [3]. For the same compound, at Leucine aminopeptidase, the IC50 is 20.3 µM (active).

For orientation: pIC50 means −log10 of the IC50, conventionally taken in molar units. A high value points to a small IC50. In the case of `CCOc1ccccc1C(=O)NC1CC2CCCC(C1)N2Cc1ccc(C)cc1` (configuration not stated), the IC50 in test [4] is 4.81 µM (active); in [5], > 32 µM (inactive). Also, the EC50 at Beta-galactosidase was > 31.5 µM (inactive); at Mu-type opioid receptor, > 32 µM (inactive); in [7], > 32 µM (inactive). Besides, the pIC50 in [6] is 4.66.

Consider `Cc1ccc(NC(=O)CCNS(=O)(=O)c2ccc3[nH]c(=O)oc3c2)cc1F`, for which the EC50 was 1.76 µM (active) in test [8], > 100 µM (inactive) in test [9] and > 100 µM (inactive) in test [10].

In the case of `CCCN(CCC)Cc1c(C(=O)NN=C/C(C)=C\c2ccco2)nnn1-c1nonc1N`, the IC50 on Cannabinoid receptor 2 [11] and at Cannabinoid receptor 1 was > 32 µM (inactive) in each case. Besides, the EC50 is > 32 µM (inactive) on Cannabinoid receptor 2 [12] and 0.597 µM (active) in [13].

Values taken from ChEMBL document CHEMBL1201862, “PubChem BioAssay data set” (2004).
